Data taken from patent US20230416248A1, “COMPOUNDS AND USES THEREOF” (Foghorn Therapeutics Inc., priority 2020, published 2023).

Legend:
BRG-1 = target: T1, BRG-1 (Homo sapiens, UniProt P51532); assay: ATPase catalytic activity of BRG-1, ADP-Glo in vitro biochemical assay; settings: ATPase catalytic activity, ADP-Glo; 30 nM BRG-1, 400 μM ATP; read-out: BRG1 IC50
T1 construct: made in house; host or cells: High Five insect cells
Procedure, shortened: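 BRG-1 ATPase activity was measured in vitro by ADP-Glo. After the reaction, ADP-Glo Reagent depleted unconsumed ATP (40 min, room temperature), then Kinase Detection Reagent converted product ADP to ATP (60 min, room temperature), and luciferase luminescence was read.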

BRM = target: T2, BRM (Homo sapiens, UniProt P51531); assay: ATPase catalytic activity of BRM, ADP-Glo in vitro biochemical assay; settings: for IC50: ATPase catalytic activity, ADP-Glo, 30 nM BRM, 400 μM ATP; for Ratio*: ratio of BRG1 IC50 to BRM IC50
T2 construct: made in house; host or cells: High Five insect cells
Procedure, shortened: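 Recombinant BRM (30 nM) hydrolysed 400 μM ATP with 20 nM salmon sperm DNA in pH 8 Tris buffer containing 20 mM MgCl2, 50 mM NaCl, 0.1% Tween-20 and 1 mM DTT, 1 h at room temperature. ADP formed was quantified by ADP-Glo luminescence.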

T1 sequence (P51532 whole entry): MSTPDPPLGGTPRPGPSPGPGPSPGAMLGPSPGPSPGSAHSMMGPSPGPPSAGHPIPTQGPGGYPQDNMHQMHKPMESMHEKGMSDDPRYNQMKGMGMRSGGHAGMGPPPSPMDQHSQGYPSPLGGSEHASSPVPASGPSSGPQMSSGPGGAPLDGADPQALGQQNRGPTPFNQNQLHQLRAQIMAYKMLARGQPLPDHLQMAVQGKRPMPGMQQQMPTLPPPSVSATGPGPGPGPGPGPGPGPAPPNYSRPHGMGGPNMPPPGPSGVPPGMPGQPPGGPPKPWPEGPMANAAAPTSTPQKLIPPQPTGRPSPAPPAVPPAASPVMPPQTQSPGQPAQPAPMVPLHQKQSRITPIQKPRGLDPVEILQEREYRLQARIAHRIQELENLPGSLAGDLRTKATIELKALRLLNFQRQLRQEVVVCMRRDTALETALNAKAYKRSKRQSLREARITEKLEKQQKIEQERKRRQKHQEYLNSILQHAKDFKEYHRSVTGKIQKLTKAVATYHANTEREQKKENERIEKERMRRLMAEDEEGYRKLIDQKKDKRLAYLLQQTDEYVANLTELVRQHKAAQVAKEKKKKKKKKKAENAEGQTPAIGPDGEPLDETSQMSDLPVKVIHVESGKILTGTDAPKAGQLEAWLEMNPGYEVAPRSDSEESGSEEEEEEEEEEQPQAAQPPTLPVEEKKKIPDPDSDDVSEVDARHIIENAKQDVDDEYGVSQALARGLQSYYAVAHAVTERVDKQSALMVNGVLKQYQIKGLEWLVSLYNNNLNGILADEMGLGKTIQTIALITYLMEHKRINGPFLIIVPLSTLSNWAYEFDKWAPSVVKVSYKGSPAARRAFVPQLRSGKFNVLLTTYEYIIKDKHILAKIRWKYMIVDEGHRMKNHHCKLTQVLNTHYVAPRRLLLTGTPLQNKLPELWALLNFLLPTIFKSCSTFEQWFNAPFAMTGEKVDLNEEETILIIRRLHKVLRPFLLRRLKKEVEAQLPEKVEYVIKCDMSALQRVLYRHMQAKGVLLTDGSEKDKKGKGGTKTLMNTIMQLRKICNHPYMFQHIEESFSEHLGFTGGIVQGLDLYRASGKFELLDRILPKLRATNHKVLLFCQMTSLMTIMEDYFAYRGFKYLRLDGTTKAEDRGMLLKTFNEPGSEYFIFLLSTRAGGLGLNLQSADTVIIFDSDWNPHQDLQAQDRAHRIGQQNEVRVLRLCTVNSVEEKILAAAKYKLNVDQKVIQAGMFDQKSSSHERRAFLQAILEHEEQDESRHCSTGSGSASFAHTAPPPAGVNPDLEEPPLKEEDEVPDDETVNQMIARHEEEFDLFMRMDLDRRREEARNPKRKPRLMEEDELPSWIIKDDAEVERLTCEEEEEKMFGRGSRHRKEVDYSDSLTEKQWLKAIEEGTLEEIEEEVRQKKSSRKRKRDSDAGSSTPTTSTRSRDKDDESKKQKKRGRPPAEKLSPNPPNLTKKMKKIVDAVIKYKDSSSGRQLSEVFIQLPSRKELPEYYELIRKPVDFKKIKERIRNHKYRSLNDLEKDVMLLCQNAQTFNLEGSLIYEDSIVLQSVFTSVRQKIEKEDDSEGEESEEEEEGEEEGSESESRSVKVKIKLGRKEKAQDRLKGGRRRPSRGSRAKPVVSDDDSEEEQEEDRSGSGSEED
T2 sequence (P51531 whole entry): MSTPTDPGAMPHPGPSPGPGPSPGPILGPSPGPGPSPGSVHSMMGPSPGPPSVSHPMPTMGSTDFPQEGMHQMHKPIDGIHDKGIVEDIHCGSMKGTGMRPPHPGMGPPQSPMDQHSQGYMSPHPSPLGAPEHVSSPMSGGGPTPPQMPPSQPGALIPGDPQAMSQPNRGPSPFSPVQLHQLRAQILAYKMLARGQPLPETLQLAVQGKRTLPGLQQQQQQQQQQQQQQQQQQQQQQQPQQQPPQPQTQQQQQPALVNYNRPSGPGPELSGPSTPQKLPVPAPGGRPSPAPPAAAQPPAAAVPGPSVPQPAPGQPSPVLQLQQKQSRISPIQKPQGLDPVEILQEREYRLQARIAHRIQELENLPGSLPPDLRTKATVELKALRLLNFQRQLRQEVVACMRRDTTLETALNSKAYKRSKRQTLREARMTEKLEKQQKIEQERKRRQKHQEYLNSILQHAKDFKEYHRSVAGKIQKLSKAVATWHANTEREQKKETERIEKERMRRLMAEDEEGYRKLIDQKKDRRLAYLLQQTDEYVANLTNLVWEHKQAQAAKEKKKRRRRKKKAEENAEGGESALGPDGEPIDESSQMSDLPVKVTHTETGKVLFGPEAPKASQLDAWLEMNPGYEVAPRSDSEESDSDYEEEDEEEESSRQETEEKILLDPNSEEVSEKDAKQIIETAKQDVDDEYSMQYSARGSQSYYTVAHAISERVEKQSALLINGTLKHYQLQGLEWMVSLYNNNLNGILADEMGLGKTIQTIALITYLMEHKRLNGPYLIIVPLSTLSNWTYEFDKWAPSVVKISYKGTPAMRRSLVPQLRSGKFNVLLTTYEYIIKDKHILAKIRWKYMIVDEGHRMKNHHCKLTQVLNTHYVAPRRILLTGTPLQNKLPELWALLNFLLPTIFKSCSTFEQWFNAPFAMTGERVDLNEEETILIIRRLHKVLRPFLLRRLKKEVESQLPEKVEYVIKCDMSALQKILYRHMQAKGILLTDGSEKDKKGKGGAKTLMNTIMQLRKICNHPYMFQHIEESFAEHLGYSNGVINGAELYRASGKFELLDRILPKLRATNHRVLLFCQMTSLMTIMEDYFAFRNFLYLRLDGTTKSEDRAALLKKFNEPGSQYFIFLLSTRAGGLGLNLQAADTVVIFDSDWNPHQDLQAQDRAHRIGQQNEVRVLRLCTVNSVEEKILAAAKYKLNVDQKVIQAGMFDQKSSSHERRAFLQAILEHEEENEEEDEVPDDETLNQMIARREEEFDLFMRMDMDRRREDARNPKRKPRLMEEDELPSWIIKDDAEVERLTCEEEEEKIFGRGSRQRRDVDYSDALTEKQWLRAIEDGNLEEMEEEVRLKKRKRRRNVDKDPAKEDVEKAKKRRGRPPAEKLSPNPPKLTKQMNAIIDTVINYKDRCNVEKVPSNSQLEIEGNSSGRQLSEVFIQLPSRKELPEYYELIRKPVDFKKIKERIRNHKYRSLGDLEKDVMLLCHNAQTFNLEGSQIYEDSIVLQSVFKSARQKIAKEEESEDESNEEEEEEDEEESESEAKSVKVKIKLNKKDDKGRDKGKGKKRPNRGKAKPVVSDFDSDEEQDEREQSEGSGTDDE

| IC50 (BRG-1) [µM] | IC50 (BRM) [µM] | Ratio* (BRM) | Compound |
| --- | --- | --- | --- |
| 0.174 | 0.0106 | 16.33 | C[C@@H]1CN(c2cccc(-c3ccc4cnc([C@H](C)NC(=O)c5ccc6c(c5)S(=O)(=O)[C@@H](C)COC6)cc4n3)n2)C[C@H](C)O1 [Compound 325] |
| 0.081 | 0.0099 | 8.22 | COCCN1c2cccc(-c3ccc4cnc(CNC(=O)c5ccc6c(c5)S(=O)(=O)CCOC6)cc4n3)c2OCC1C (stereo not drawn) [Compound 326] |
| 0.291 | 0.0192 | 15.15 | O=C(NCc1cc2nc(-c3ccc(Cl)c(OC(F)F)n3)ccc2cn1)c1ccc2c(c1)S(=O)(=O)CCOC2 [Compound 327] |
| 0.13 | 0.0086 | 15.19 | COc1nc(C(F)F)ccc1-c1ccc2cnc(CNC(=O)c3ccc4c(c3)S(=O)(=O)CCOC4)cc2n1 [Compound 329] |
| 0.473 | 0.011 | 43.09 | CCOc1cccc(-c2ccc3cnc(CNC(=O)c4ccc5c(c4)S(=O)(=O)[C@@H](C)COC5)cc3n2)n1 [Compound 330] |
| 0.418 | 0.0135 | 30.98 | C[C@H]1COCc2ccc(C(=O)NCc3cc4nc(-c5cccc(C6CC6)n5)ccc4cn3)cc2S1(=O)=O [Compound 331] |
| 0.225 | 0.0166 | 13.49 | CO[C@H]1CN(c2cccc(-c3ccc4cnc(CNC(=O)c5ccc6c(c5)S(=O)(=O)CCOC6)cc4n3)n2)C[C@H]1F [Compound 332] |
| 0.227 | 0.0171 | 13.29 | CO[C@@H]1CN(c2cccc(-c3ccc4cnc(CNC(=O)c5ccc6c(c5)S(=O)(=O)CCOC6)cc4n3)n2)C[C@@H]1F [Compound 333] |
| 0.377 | 0.0212 | 17.82 | C[C@@H]1C[C@@H](N(C)c2cccc(-c3ccc4cnc(CNC(=O)c5ccc6c(c5)S(=O)(=O)CCOC6)cc4n3)n2)C[C@H](C)O1 [Compound 334] |
| 0.288 | 0.0243 | 11.87 | COc1cc(C(F)(F)F)ccc1-c1ccc2cnc(CNC(=O)c3ccc4c(c3)S(=O)(=O)CCOC4)cc2n1 [Compound 335] |
| 0.107 | 0.0066 | 16.08 | COCCn1ccc2c(-c3ccc4cnc(CNC(=O)c5ccc6c(c5)S(=O)(=O)CCOC6)cc4n3)ccnc21 [Compound 336] |
| 0.211 | 0.0219 | 9.67 | CCN(c1cccc(-c2ccc3cnc(CNC(=O)c4ccc5c(c4)S(=O)(=O)CCOC5)cc3n2)n1)C1CC1 [Compound 337] |
| 0.219 | 0.0201 | 10.88 | CCN(c1cccc(-c2ccc3cnc(CNC(=O)c4cc(F)c5c(c4)S(=O)(=O)CCOC5)cc3n2)n1)C1CC1 [Compound 338] |
| 0.0858 | 0.0096 | 8.89 | CO[C@H]1CN(c2cccc(-c3ccc4cnc(CNC(=O)c5ccc6c(c5)S(=O)(=O)CCOC6)cc4n3)n2)C[C@@H]1F [Compound 339] |
| 0.309 | 0.0222 | 13.96 | CO[C@@H]1CN(c2cccc(-c3ccc4cnc(CNC(=O)c5ccc6c(c5)S(=O)(=O)CCOC6)cc4n3)n2)C[C@H]1F [Compound 340] |
| 0.185 | 0.0251 | 7.37 | O=C(NCc1cc2nc(-c3cccc(N4CCOCC(F)(F)C4)n3)ccc2cn1)c1ccc2c(c1)S(=O)(=O)CCOC2 [Compound 341] |
| 4.32 | 0.283 | 15.24 | CN1CC[C@H](Oc2cccc(-c3ccc4cnc(CNC(=O)c5ccc6c(c5)S(=O)(=O)CCOC6)cc4n3)n2)C1 [Compound 342] |
| 0.0203 | 0.0076 | 2.68 | COC1CCS(=O)(=O)c2cc(C(=O)NCc3cc4nc(-c5cccc(N6C[C@@H](C)O[C@@H](C)C6)n5)ccc4cn3)ccc2C1 (stereo partly drawn) [Compound 344] |
| 0.251 | 0.015 | 16.77 | CCN(C[C@H](C)OC)c1cccc(-c2ccc3cnc(CNC(=O)c4ccc5c(c4)S(=O)(=O)CCOC5)cc3n2)n1 [Compound 345] |
| 2.77 | 0.367 | 7.55 | COC[C@H]1C[C@H]1c1cccc(-c2ccc3cnc(CNC(=O)c4ccc5c(c4)S(=O)(=O)CCOC5)cc3n2)n1 [Compound 346] |
| 3.73 | 1.23 | 3.03 | COCCN(C)c1cccc(-c2ccc3cnc(CNC(=O)c4ccc5c(c4)S(=O)(=O)CCOC5)cc3n2)c1OC [Compound 347] |
| 2.56 | 0.0743 | 34.42 | CS(=O)(=O)c1cc(C(=O)NCc2cc3nc(-c4cn([C@H]5C[C@H](F)C5)nc4OC(F)F)ccc3cn2)ccc1C(F)F [Compound 348] |
| 0.253 | 0.0241 | 10.47 | COCCN(c1cccc(-c2ccc3cnc(CNC(=O)c4ccc5c(c4)S(=O)(=O)CCOC5)cc3n2)n1)C1CC1 [Compound 349] |

| IC50 (BRG-1) [µM] | IC50 (BRM) [µM] | Ratio* (BRM) | Compound |
| --- | --- | --- | --- |
| 0.105 | 0.0081 | 12.99 | Cc1ccc2c(c1)CCCN2c1ccc2cnc(CNC(=O)c3ccc4c(c3)S(=O)(=O)CCOC4)cc2n1 [Compound 350] |
| 0.483 | 0.0602 | 8.02 | CO[C@H]1CCN(c2cccc(-c3ccc4cnc(CNC(=O)c5ccc6c(c5)S(=O)(=O)CCOC6)cc4n3)n2)C[C@@H]1C [Compound 352] |
| 0.125 | 0.0095 | 13.13 | CO[C@@H]1CCN(c2cccc(-c3ccc4cnc(CNC(=O)c5ccc6c(c5)S(=O)(=O)CCOC6)cc4n3)n2)C[C@H]1C [Compound 353] |
| 0.415 | 0.014 | 29.57 | Cc1cc(C(=O)NCc2cc3nc(-c4cccc(N5C[C@@H](C)O[C@@H](C)C5)n4)ccc3cn2)cc2c1COCCS2(=O)=O [Compound 354] |
| 0.0639 | 0.0087 | 7.36 | C[C@@H]1CN(c2cccc(-c3ccc4cnc(CNC(=O)c5cc(C(F)F)c6c(c5)S(=O)(=O)CCOC6)cc4n3)n2)C[C@H](C)O1 [Compound 355] |
| 0.293 | 0.0214 | 13.72 | O=C(NCc1cc2nc(-c3ccc(C(F)F)cc3OC3CC3)ccc2cn1)c1ccc2c(c1)S(=O)(=O)CCOC2 [Compound 357] |
| 0.0354 | 0.0046 | 7.69 | COCCN(CC(F)F)c1cccc(-c2ccc3cnc(CNC(=O)c4ccc5c(c4)S(=O)(=O)CCOC5)cc3n2)n1 [Compound 358] |
| 0.145 | 0.0074 | 19.62 | CN(CCOC1CC1)c1cccc(-c2ccc3cnc(CNC(=O)c4ccc5c(c4)S(=O)(=O)CCOC5)cc3n2)n1 [Compound 361] |
| 0.238 | 0.0169 | 14.06 | C[C@@H]1CN(c2cccc(-c3ccc4cnc(CNC(=O)c5ccc6c(c5)S(=O)(=O)[C@H](C)CC6)cc4n3)n2)C[C@H](C)O1 [Compound 362] |
| 0.231 | 0.019 | 12.21 | CC1Cc2ccc(C(=O)NCc3cc4nc(-c5cccc(N6C[C@@H](C)O[C@@H](C)C6)n5)ccc4cn3)cc2S1(=O)=O (stereo partly drawn) [Compound 364] |
| 0.325 | 0.0131 | 24.88 | CC(C)S(=O)(=O)c1cccc(C(=O)NCc2cc3nc(-c4cccc(N5C[C@@H](C)O[C@@H](C)C5)n4)ccc3cn2)c1 [Compound 365] |
| 2.96 | 0.324 | 9.14 | COCCOc1cc(C(F)F)ccc1-c1ccc2cnc(CNC(=O)c3ccc4c(c3)S(=O)(=O)CCOC4)cc2n1 [Compound 366] |
| 0.151 | 0.0084 | 17.87 | O=C(NCc1cc2nc(N3CCOc4cccnc43)ccc2cn1)c1ccc2c(c1)S(=O)(=O)CCOC2 [Compound 367] |
| 0.416 | 0.0361 | 11.52 | COC[C@H]1C[C@@H]1c1cccc(-c2ccc3cnc(CNC(=O)c4ccc5c(c4)S(=O)(=O)CCOC5)cc3n2)n1 [Compound 369] |
| 0.152 | 0.0146 | 10.43 | CCN(CC1COC1)c1cccc(-c2ccc3cnc(CNC(=O)c4ccc5c(c4)S(=O)(=O)CCOC5)cc3n2)n1 [Compound 370] |
| 0.117 | 0.0109 | 10.78 | CCN(c1cccc(-c2ccc3cnc(CNC(=O)c4ccc5c(c4)S(=O)(=O)CCOC5)cc3n2)n1)[C@@H](C)COC [Compound 372] |
| 0.138 | 0.0129 | 10.75 | COCCN(CC(C)(F)F)c1cccc(-c2ccc3cnc(CNC(=O)c4ccc5c(c4)S(=O)(=O)CCOC5)cc3n2)n1 [Compound 373] |
| 0.0707 | 0.0088 | 8.04 | COCCN(c1cccc(-c2ccc3cnc(CNC(=O)c4ccc5c(c4)S(=O)(=O)CCOC5)cc3n2)n1)C1CCC1 [Compound 374] |
| 0.63 | 0.0427 | 14.74 | O=C(NCc1cc2nc(-c3cccc(OCC4CCC4)n3)ccc2cn1)c1ccc2c(c1)S(=O)(=O)CCOC2 [Compound 375] |
| 0.535 | 0.0664 | 8.06 | O=C(NCc1cc2nc(-c3cccc(C4CCOC4)n3)ccc2cn1)c1ccc2c(c1)S(=O)(=O)CCOC2 (stereo not drawn) [Compound 376] |
| 0.152 | 0.0124 | 12.27 | O=C(NCc1cc2nc(-c3cccc([C@]45CCOCC4C5)n3)ccc2cn1)c1ccc2c(c1)S(=O)(=O)CCOC2 (stereo partly drawn) [Compound 377] |
| 0.162 | 0.0117 | 13.88 | O=C(NCc1cc2nc(-c3cccc([C@@]45CCOCC4C5)n3)ccc2cn1)c1ccc2c(c1)S(=O)(=O)CCOC2 (stereo partly drawn) [Compound 378] |
